These results are taken from patent publication US20250281462A1, “THERAPEUTICALLY EFFECTIVE ORAL ADMINISTRATION OF A 2 ARYLBENZIMIDAZOLE” (Tranquis Therapeutics, Inc., priority 2021, published 2025).

Each structure is given as a SMILES string. “Also recorded” adds a separate entry of the source.

For assay [1], the system named is TNFα. In words: TNFα release by LPS-stimulated BV2 cells (ELISA). It is filed as cell-based, murine. The method, then:
First, 100 μL of supernatant was removed from Cell Plate and transferred to a Dilution Plate, which was then centrifuged at 216×g for 10 minutes to remove particulates. The dilution plate was either assayed immediately or aliquots were taken and stored at ≤−20° C.; repeated freeze-thaw cycles were avoided.
Next, a standard curve was prepared by first pipetting 900 ul of Calibrator Diluent RD5K into the […] tube, followed by 200 μl of the appropriate calibrator diluent in the remaining tubes. The stock solution was used to produce a dilution. The resulting tubes were then thoroughly mixed. The Mouse TNFα Standard ([…]) served as the high standard, and the Calibrator Diluent RD5T served as the zero standard at 0 pg/ml.
Assay Diluent RD1-63 (50 uL) was then added to the center of each well and mixed before and during its use. Then, 50 ul of either standard, control, or sample was added to the center of each well, and covered with adhesive strip. […]
Substrate solution (100 uL) was then added to each well, incubated in the dark for 30 minutes at room temperature, followed by addition of 100 μl of Stop Solution and mixed. The optical density of each well was determined within 30 minutes by using a microplate reader set to 450 nm.
Plates were read on a Spectrostar Nano machine with built-in MARS data analysis at […] and 570 nM. […]

Assay [2] has as its system TNFα. In words: LPS-induced TNFα secretion from BV2 cells (CBA assay). Format: cell-based, murine. The note with it: for suppression of TNFα production vs control: 100 ng/mL LPS 24 hours. The method, then: Lipopolysaccharide (LPS) is a natural ligand of the TLR4/CD14 complex, which is highly expressed on myeloid cells
LPS was used to induce cytokine secretion from BV-2 cells. Cells were incubated with TQS-168 at various concentrations to assess whether TQS-168 could suppress the LPS-promoted release of various cytokines from in vitro cell cultures. Cytokine secretion was measured by cytometric bead array (CBA) fluorescence-activated cell sorting (FACS).
Briefly, a vial of BV2 frozen stock (1 million cells per ml in complete medium) was thawed into 10 mL of complete medium per vial for a total of 4 vials. The vials were then centrifuged at 1800 rpm for 3 minutes to wash away freezing media. The four vials were then pooled into 25 mL of complete medium. TQS-168 was prepared in DMSO.
Cells were incubated for 24 hours in the presence of medium (negative control), LPS (positive control), DMSO+LPS (positive control, controlling additionally for presence of DMSO in the TQS-168 stock solution), or LPS+TQS-168 at final concentrations of 1 μM, 5 μM, 10 μM, and 20 μM.
After the well plates were incubated overnight for 24 hours, they were centrifuged at 1800 rpm for 5 minutes. Next, 150 μl from each well was transferred to a new set of plates, of which 50 μl was used for CBA. The plates were then centrifuged with the cells, followed by addition of 100 μL of DAPI (50 ml of PBS+10 μL of DAPI stock at 1:5000 dilution). The plates were then incubated in the dark for 5 minutes, followed by addition of 100 μL of PBS and centrifuged at 1800 rpm for 5 minutes. Finally, the plates were resuspended in 200 μL of PBS and tested.
Multiplexed cytometric bead array (CBA) assay was performed according to standard techniques to detect presence in the cell culture medium of secreted murine TNFα, IL-6, IFNγ, IL-12, monocyte chemoattractant protein 1 (MCP-1), and IL-10.
A total of 4-11 replicates of BV2 cultures in different conditions were investigated. […]

Assay [3] has as its system TNFα. In words: LPS-stimulated TNFα secretion from human PBMCs (ELISA). As to conditions: LPS 1 ng/mL, 24 h. Format: cell-based. The method, then: The principal metabolites from liver metabolism of TQS-168 following oral administration have been described. See Sun et al., Rapid Commun. Mass Spectrom. 32:480-488 (2018), incorporated herein by reference. We synthesized the phase 1 metabolites from liver metabolism of TQS-168 illustrated in FIG. 20 and tested them for the ability to inhibit LPS-stimulated secretion of pro-inflammatory cytokines in vitro.
Briefly, 20,000 human PBMC were aliquoted into each well. LPS was added at 1 ng/mL and the cells incubated for 24 h in the presence of LPS and TQS-168 or one of its metabolites. Readouts were human IL-6 ELISA and human TNFα ELISA. For assay, supernatants were diluted in culture medium. The supernatant dilution for the IL-6 ELISA was 1:8, and the 1:2 for the human TNFα ELISA.

On to `CC(C)(C)c1ccc(-c2nc3ccccc3[nH]2)cc1` [TQS-168, 2-(4-tert-butylphenyl)-1H-benzimidazole], for which, in the assay with TNFα [1] (BV-2 cells, 0.3 ng/mL LPS, 10 μM TQS-168, ELISA, 24 hours), the “suppression of TNFα production” value was “about 25%”. Moreover, the inhibition at 10 µM with TNFα [1] (Mus musculus, BV-2, 24 h, read-out: inhibition of TNFα production) is around 35%. Also, the “suppression of TNFα production vs control” value in the assay on TNFα [2] (5 μM) and with TNFα [2] (20 μM) was “can suppress TNFα production; also recorded: inhibition of TNFα production” in each case. In addition, in the assay on TNFα [2] (1-20 μM), the “reduction of LPS-induced TNFα secretion, dose response” value is “concentration-dependent; also recorded: dose-responsive inhibition”.

For `CC(C)(C)c1ccc(-c2nc3cc(O)ccc3[nH]2)cc1` [TQS-621], the “inhibition of LPS-stimulated TNFα secretion” value in the assay on TNFα [3] is given as “potently inhibits; also recorded: potent inhibitor”.
